Data: PubChem BioAssay (NCI)
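Where inhibition never reached the appropriate level, the endpoint shown equals the highest concentration tested. Otherwise, values were interpolated linearly from a five-concentration, 48-hour dose response in 96-well plates. TGI marks complete inhibition of growth.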

Columns and labels:
Assay in all cases: DTP human tumour cell line panel, 48 h
BT-549 breast = test system: BT-549 breast
LOX IMVI melanoma = test system: LOX IMVI melanoma
UACC-62 melanoma = test system: UACC-62 melanoma
SW-620 colon = test system: SW-620 colon
UACC-257 melanoma = test system: UACC-257 melanoma
CAKI-1 renal = test system: CAKI-1 renal
HCC-2998 colon = test system: HCC-2998 colon
RXF 393 renal = test system: RXF 393 renal
SNB-19 CNS = test system: SNB-19 CNS
UO-31 renal = test system: UO-31 renal
MCF7 breast = test system: MCF7 breast
A498 renal = test system: A498 renal
ACHN renal = test system: ACHN renal
SK-MEL-2 melanoma = test system: SK-MEL-2 melanoma
NCI-H226 lung = test system: NCI-H226 lung

| Structure (SMILES) | TGI (BT-549 breast) | TGI (LOX IMVI melanoma) | TGI (UACC-62 melanoma) | TGI (SW-620 colon) | TGI (UACC-257 melanoma) | TGI (CAKI-1 renal) | TGI (HCC-2998 colon) | TGI (RXF 393 renal) | TGI (SNB-19 CNS) | TGI (UO-31 renal) | TGI (MCF7 breast) | TGI (A498 renal) | TGI (ACHN renal) | TGI (SK-MEL-2 melanoma) | TGI (NCI-H226 lung) |
| --- | --- | --- | --- | --- | --- | --- | --- | --- | --- | --- | --- | --- | --- | --- | --- |
| Cc1cc(C)c2c(=O)cc(-c3ccc(Cl)cc3)[nH]c2n1 | 99.4 µM | > 100 µM | > 100 µM | > 100 µM | 83.1 µM | > 55.4 µM | > 100 µM | > 100 µM | > 100 µM | > 93.9 µM | > 100 µM | > 100 µM | > 100 µM | > 100 µM | > 100 µM |
| Cc1[nH]c2c(C)ccc(C)c2c1CC(=O)O | > 100 µM | > 100 µM | > 100 µM | > 100 µM | > 100 µM | > 100 µM | > 100 µM | > 100 µM | > 100 µM | > 100 µM | > 100 µM | > 100 µM | > 100 µM | 81.9 µM | > 100 µM |
| NCC(=O)C(O)C(O)C(O)CO (stereo not given) | > 100 µM | > 100 µM | > 100 µM | > 100 µM | > 100 µM | > 100 µM | > 100 µM | > 100 µM | > 100 µM | > 100 µM | > 100 µM | > 100 µM | > 100 µM | > 100 µM | > 100 µM |
| c1ccc(N/N=C2\CC(c3ccccc3)Oc3ccccc32)cc1 (stereo not given) | > 100 µM | > 100 µM | > 100 µM | > 100 µM | > 100 µM | > 100 µM | > 100 µM | 75.3 µM | > 100 µM | > 100 µM | > 100 µM | > 100 µM | > 100 µM | > 100 µM | > 100 µM |
| CC(=O)OCc1nc(C#N)c(N)o1 | > 100 µM | > 100 µM | > 100 µM | > 100 µM | > 100 µM | > 100 µM | > 100 µM | > 100 µM | > 100 µM | > 100 µM | > 100 µM | > 100 µM | > 100 µM | > 100 µM | > 100 µM |
| C[C@]12CC[C@@H]3c4ccc(OC(=O)c5ccccc5)cc4CC[C@H]3[C@@H]1CCC2OC(=O)c1cccc2c(=O)c3ccccc3[nH]c12 (stereo not given in full) | 38 µM | 31 µM | 31.3 µM | 24.5 µM | 36.3 µM | 58.9 µM | 30 µM | 44.6 µM | 80.6 µM | 68.6 µM | 30.2 µM | 64 µM | 46.8 µM | 54.3 µM | 39.6 µM |
| CCCCCCCCCCCCCCCCOP(=O)(O)OP(=O)(O)OCC1OC(n2ccc(N)nc2=O)CC1O (stereo not given) | > 100 µM | > 100 µM | > 100 µM | > 100 µM | > 100 µM | > 100 µM | > 100 µM | > 100 µM | > 100 µM | > 100 µM | > 100 µM | > 100 µM | > 100 µM | > 100 µM | > 100 µM |
| COc1ccc(C)c2c1N[C@](C)([C@]1(C)Nc3c(OC)ccc(C)c3C1=O)C2=O | > 100 µM | > 100 µM | > 100 µM | > 100 µM | > 100 µM | > 100 µM | > 100 µM | > 100 µM | > 100 µM | > 100 µM | > 100 µM | > 100 µM | > 100 µM | > 100 µM | > 100 µM |
| Cc1cc(S(=O)(=O)Nc2nc(N)n(-c3cnc4ccccc4n3)n2)c(S)cc1Cl | > 100 µM | > 100 µM | > 100 µM | > 100 µM | > 100 µM | > 100 µM | > 100 µM | > 100 µM | > 100 µM | > 100 µM | > 100 µM | > 100 µM | > 100 µM | > 100 µM | > 100 µM |
| CCCSc1cc(Cl)c(C)cc1S(=O)(=O)n1cc[nH]c1=O | > 100 µM | > 100 µM | > 100 µM | > 100 µM | > 100 µM | > 100 µM | > 100 µM | > 100 µM | > 100 µM | > 100 µM | > 100 µM | > 100 µM | > 100 µM | > 100 µM | > 100 µM |
| N#Cc1c(C#N)c(-c2cccc([N+](=O)[O-])c2)n(-c2ccccc2)c1N | > 100 µM | > 100 µM | > 100 µM | > 100 µM | > 100 µM | > 100 µM | > 100 µM | > 100 µM | > 100 µM | > 100 µM | > 100 µM | > 100 µM | > 100 µM | > 100 µM | 86.1 µM |
| CCOC(=O)c1ccc2c(c1)nc1n2C(c2c(F)cccc2F)SC1 (stereo not given) | > 100 µM | 58.6 µM | > 100 µM | > 100 µM | > 100 µM | > 100 µM | > 100 µM | > 100 µM | 83.5 µM | > 100 µM | 74.6 µM | > 100 µM | > 100 µM | 38.4 µM | 34.6 µM |
| CCOC(=O)CSc1nc2ccccc2c(=O)n1N | > 100 µM | > 100 µM | > 100 µM | > 100 µM | > 100 µM | > 100 µM | > 100 µM | > 100 µM | > 100 µM | > 100 µM | > 100 µM | > 100 µM | > 100 µM | > 100 µM | > 100 µM |
| COC(=O)C1([C@@H]2C[C@@H](O)[C@]3(C)CC/C=C(\C)CCC[C@H](C)[C@H](O)[C@@H]2O3)CC1 | > 100 µM | > 100 µM | > 100 µM | > 100 µM | > 100 µM | > 100 µM | > 100 µM | > 100 µM | > 100 µM | 60.3 µM | > 100 µM | > 100 µM | > 100 µM | > 100 µM | 69.2 µM |
| COc1cccc2c1C(=O)C(=O)c1c-2oc(=O)c2cc(C)cc(OC)c12 | 26 µM | 26.5 µM | > 75 µM | > 75 µM | 32.4 µM | > 75 µM | 37.6 µM | 42.8 µM | > 75 µM | > 75 µM | 72.5 µM | > 75 µM | > 75 µM | 35.1 µM | > 75 µM |
| O=C(NNC(=S)Nc1ccccc1)C12CC3CC(CC(C3)C1)C2 | 60.8 µM | > 91.9 µM | > 100 µM | > 100 µM | > 100 µM | > 100 µM | > 95.7 µM | > 100 µM | > 100 µM | > 100 µM | > 100 µM | > 91.4 µM | > 100 µM | > 86.9 µM | > 86.6 µM |
| Cc1c(O)c(OC2OC(CO)C(O)C(O)C2O)cc2c1CC[C@@H]1C2(C)C(=O)C[C@]2(C)[C@@H]([C@@](C)(O)C(O)/C=C/C(C)(C)O)[C@H](O)C[C@@]12C (stereo not given in full) | > 100 µM | > 100 µM | > 100 µM | > 100 µM | > 100 µM | > 100 µM | > 100 µM | > 100 µM | > 100 µM | > 100 µM | > 100 µM | > 100 µM | > 100 µM | > 100 µM | > 100 µM |
| CCCCCCCC/C=C\CCCCCCCCNc1ccn(C2OC(COP(=O)(O)OC3CC(n4cc(F)c(=O)[nH]c4=O)OC3CO)C(O)C2O)c(=O)n1 (stereo not given) | > 100 µM | > 37.2 µM | > 95 µM | > 100 µM | > 100 µM | > 100 µM | > 100 µM | > 100 µM | > 100 µM | > 100 µM | > 100 µM | > 53.2 µM | > 100 µM | > 100 µM | > 100 µM |
| CCOC(=O)c1sc2nc(SC)nc(Nc3ccc4c(c3)OCCCO4)c2c1N | > 100 µM | > 100 µM | > 100 µM | > 100 µM | > 100 µM | > 100 µM | > 100 µM | 41.7 µM | > 100 µM | > 100 µM | > 100 µM | > 100 µM | > 100 µM | > 100 µM | > 100 µM |
| O=C(OCc1ccccc1)N1CCNCCNCC1 | > 100 µM | > 100 µM | > 100 µM | > 100 µM | > 100 µM | > 100 µM | > 100 µM | > 100 µM | > 100 µM | > 100 µM | > 100 µM | > 100 µM | > 100 µM | > 100 µM | > 100 µM |
| c1ccc(COCC23CCN(Cc4ccccc4)C(CC(OCc4ccccc4)C2)S3)cc1 (stereo not given) | > 100 µM | > 100 µM | > 100 µM | > 100 µM | > 100 µM | > 100 µM | > 100 µM | > 100 µM | > 100 µM | > 100 µM | 59.9 µM | > 100 µM | > 100 µM | > 100 µM | > 100 µM |
| CC1=C(C)SC(=C2Sc3c(n(C)c(=O)[nH]c3=O)S2)S1 | > 100 µM | > 100 µM | > 100 µM | > 100 µM | > 100 µM | > 100 µM | > 100 µM | > 100 µM | > 100 µM | > 100 µM | > 100 µM | > 100 µM | > 100 µM | > 100 µM | > 100 µM |
